# Assay results taken from article PMC5975062 (Alzheimer's & Dementia : Translational Research & Clinical …, 2015).
# “Also recorded” adds a separate entry of the source.
# How the values were obtained:
# [1] = Phase 1 plasma pharmacokinetics after single and multiple oral doses; assay type: in vivo, human; conditions: for AUC(0-t) / half-life / Tmax: human, plasma, oral; for AUC(0-t): plasma AUC0–12 h
# [2] = Phase 1 CSF pharmacokinetics; assay type: in vivo, human; conditions: for concentration at 12 h: Min (C 12 h)
# QC activity in serum = QC activity in serum (Homo sapiens, UniProt Q16769); conditions: after single and multiple doses
# QC activity in serum, sequence (Q16769 29-361): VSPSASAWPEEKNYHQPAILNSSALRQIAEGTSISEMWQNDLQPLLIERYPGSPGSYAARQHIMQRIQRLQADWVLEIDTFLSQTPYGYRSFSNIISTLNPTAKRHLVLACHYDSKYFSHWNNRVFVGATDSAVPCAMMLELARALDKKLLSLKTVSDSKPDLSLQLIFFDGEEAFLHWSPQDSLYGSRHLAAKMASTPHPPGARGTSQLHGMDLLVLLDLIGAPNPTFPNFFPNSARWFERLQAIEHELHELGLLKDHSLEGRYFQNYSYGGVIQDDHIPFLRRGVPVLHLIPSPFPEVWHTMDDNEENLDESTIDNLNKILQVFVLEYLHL
# QC activity in CSF = QC activity in CSF (Homo sapiens, UniProt Q16769); conditions: after single and multiple doses
# QC activity in CSF, sequence (Q16769 29-361): as above
# [3] = 50 mg bid solution, fasted, nonelderly, day 11, geo mean (CV%)
smiles,measurement,setting,value
CCCOc1ccc([C@H]2CNC(=O)N2c2ccc3[nH]cnc3c2)cc1 [PQ912],AUC(0-t),"[1]; 100 mg, 100 mg bid solution, fed, nonelderly, day 11, geo mean (CV%)",969 ng·h/mL
same,half-life,"[1]; 100 mg, plasma t1/2 (apparent terminal), 100 mg bid solution, fed, nonelderly, day 11, geo mean (CV%)",3.46 h
same,half-life,"[1]; 100 mg, plasma t1/2,eff (2–12 h postdose), 100 mg bid solution, fed, nonelderly, day 11, geo mean (CV%)",2.44 h
same,Tmax,"[1]; 100 mg, plasma tmax, 100 mg bid solution, fed, nonelderly, day 11, median (min–max)",0.75 h
same,AUC(0-t),"[1]; 200 mg, 200 mg bid capsule, fasted, elderly, day 7, geo mean (CV%)",3890 ng·h/mL
same,half-life,"[1]; 200 mg, plasma t1/2 (apparent terminal), 200 mg bid capsule, fasted, elderly, day 7, geo mean (CV%)",7.55 h
same,half-life,"[1]; 200 mg, plasma t1/2,eff (2–12 h postdose), 200 mg bid capsule, fasted, elderly, day 7, geo mean (CV%)",3.08 h
same,Tmax,"[1]; 200 mg, plasma tmax, 200 mg bid capsule, fasted, elderly, day 7, median (min–max)",1 h
same,AUC(0-t),"[1]; 500 mg, 500 mg bid capsule, fed, nonelderly, day 11, geo mean (CV%)",9300 ng·h/mL
same,half-life,"[1]; 500 mg, plasma t1/2 (apparent terminal), 500 mg bid capsule, fed, nonelderly, day 11, geo mean (CV%)",6.82 h
same,half-life,"[1]; 500 mg, plasma t1/2,eff (2–12 h postdose), 500 mg bid capsule, fed, nonelderly, day 11, geo mean (CV%)",3.01 h
same,Tmax,"[1]; 500 mg, plasma tmax, 500 mg bid capsule, fed, nonelderly, day 11, median (min–max)",3 h
same,Tmax,"[1]; mean plasma tmax, single 10–400 mg solution, fasted",0.5 h
same,half-life,"[1]; plasma t1/2,eff, after bid doses",2 to 3 h
same,Tmax,"[1]; plasma tmax, generally observed, all formulations and doses",0.5 to 1.5 h
same,Tmax,"[1]; plasma tmax, repeated dosing, compared with CSF",0.5 to 1 h
same,half-life,"[1]; terminal plasma t1/2, single doses, across dose range",2 to 8 h
same,time to steady-state,"[1]; multiple bid dosing, morning trough plasma concentrations",≤ 2 days
same,plasma trough (12 hours postdose) lower than peak levels,"[1]; repeated bid dosing ≥50 mg, steady state",up to 61 fold
same,increase in AUC with ninefold increase in dose,[1]; single doses 200–1800 mg,24 fold
same,CSF AUC(0–12 h),"[2]; 20 mg bid solution, fasted, nonelderly, day 11, estimated as plasma AUC × 0.05",6 ng·h/mL
same,"CSF concentration, Max (C 3 h)","[2]; 20 mg bid solution, fasted, nonelderly, day 11, estimated, mean × 1.6",0.8 ng/mL
same,CSF AUC(0–12 h),[2]; [3],17.3 (34.8) ng.h/mL
same,"CSF concentration, Max (C 3 h)",[2]; [3],2.32 (34.5) ng/mL
same,CSF AUC(0–12 h),"[2]; 100 mg bid solution, fed, nonelderly, day 11, geo mean (CV%)",44.7 (27.2) ng.h/mL
same,CSF AUC(0–12 h),"[2]; 200 mg bid capsule, fasted, elderly, day 7, estimated as plasma AUC × 0.05",195 ng·h/mL
same,"CSF concentration, Max (C 3 h)","[2]; 200 mg bid capsule, fasted, elderly, day 7, estimated, mean × 1.6",25.9 ng/mL
same,CSF AUC(0–12 h),"[2]; 200 mg bid solution, fasted, nonelderly, day 11, estimated as plasma AUC × 0.05",91.7 ng·h/mL
same,"CSF concentration, Max (C 3 h)","[2]; 300 mg bid capsule, fasted, elderly, day 7, estimated, mean × 1.6",37.7 ng/mL
same,CSF AUC(0–12 h),"[2]; 300 mg bid capsule, fasted, elderly, day 7, geo mean (CV%)",275 (40.7) ng.h/mL
same,CSF AUC(0–12 h),"[2]; 400 mg bid capsule, fasted, nonelderly, day 11, geo mean (CV%)",236 (25.0) ng.h/mL
same,"CSF concentration, Max (C 3 h)","[2]; 500 mg bid capsule, fed, nonelderly, day 11, estimated, mean × 1.6",62.0 ng/mL
same,"CSF concentration, Max (C 3 h)","[2]; 500 mg bid tablet, fasted, elderly, day 11, estimated, mean × 1.6",79.0 ng/mL
same,CSF AUC(0–12 h),"[2]; 500 mg bid tablet, fasted, elderly, day 11, geo mean (CV%)",530 (36.6) ng.h/mL
same,CSF AUC(0–12 h),"[2]; 800 mg bid tablet, fasted, elderly, day 11, estimated as plasma AUC × 0.05",1230 ng·h/mL
same,"CSF concentration, Max (C 3 h)","[2]; 800 mg bid tablet, fasted, elderly, day 11, estimated, mean × 1.6",163.7 ng/mL
same,concentration at 3 h,"[2]; human, CSF, oral, 100 mg, CSF concentration, Max (C 3 h), 100 mg bid solution, fed, nonelderly, day 11, geo mean (CV%)",6.02 ng/mL
same,concentration at 12 h,"[2]; human, CSF, oral, 100 mg, CSF concentration, 100 mg bid solution, fed, nonelderly, day 11, geo mean (CV%)",1.92 ng/mL
same,half-life,"[2]; human, CSF, oral, 100 mg, CSF t1/2, 100 mg bid solution, fed, nonelderly, day 11, geo mean (CV%)",6.38 h
same,concentration at 12 h,"[2]; human, CSF, oral, 200 mg, CSF concentration, 200 mg bid capsule, fasted, elderly, day 7, estimated, mean × 0.53",8.6 ng/mL
same,concentration at 12 h,"[2]; human, CSF, oral, 500 mg, CSF concentration, 500 mg bid capsule, fed, nonelderly, day 11, estimated, mean × 0.53",20.5 ng/mL
same,CSF trough lower than peak levels,[2]; repeated bid dosing ≥50 mg,approximately threefold lower
same,time of highest concentrations in the CSF,"[2]; single oral solution, CSF sampling 1, 1.5 and 3 hours",3 h
same,QC activity in serum,QC activity in serum,inhibited in a dose-related manner; also recorded: decreased in a dose-related manner
same,QC activity in CSF,QC activity in CSF,inhibited in a dose-related manner; also recorded: decreased in a dose-related manner
